Where two headings read alike, the source gives them in different places.
Molecular target: T1, Human FXR full length (Homo sapiens, UniProt Q96RI1)
T1 construct: Human FXR full length and RXR full length was obtained from Ronald Evans' laboratory; expressed in transfected cells; host or cells: CV-1 cells
T1 sequence (Q96RI1 1-476 isoform Q96RI1-1): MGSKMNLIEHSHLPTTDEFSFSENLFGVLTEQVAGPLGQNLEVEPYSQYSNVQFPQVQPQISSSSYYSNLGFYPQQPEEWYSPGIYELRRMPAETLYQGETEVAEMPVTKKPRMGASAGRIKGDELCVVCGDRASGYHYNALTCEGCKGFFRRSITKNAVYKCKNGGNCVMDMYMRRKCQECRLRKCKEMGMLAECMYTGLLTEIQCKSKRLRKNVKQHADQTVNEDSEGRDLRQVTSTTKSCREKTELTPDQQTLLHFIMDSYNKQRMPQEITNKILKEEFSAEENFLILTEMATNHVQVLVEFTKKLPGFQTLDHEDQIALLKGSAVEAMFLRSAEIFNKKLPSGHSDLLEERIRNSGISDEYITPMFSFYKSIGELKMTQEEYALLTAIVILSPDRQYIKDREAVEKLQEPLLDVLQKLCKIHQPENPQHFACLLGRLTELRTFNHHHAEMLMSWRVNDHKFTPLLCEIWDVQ
T1 sequence (P19793 1-462 partner): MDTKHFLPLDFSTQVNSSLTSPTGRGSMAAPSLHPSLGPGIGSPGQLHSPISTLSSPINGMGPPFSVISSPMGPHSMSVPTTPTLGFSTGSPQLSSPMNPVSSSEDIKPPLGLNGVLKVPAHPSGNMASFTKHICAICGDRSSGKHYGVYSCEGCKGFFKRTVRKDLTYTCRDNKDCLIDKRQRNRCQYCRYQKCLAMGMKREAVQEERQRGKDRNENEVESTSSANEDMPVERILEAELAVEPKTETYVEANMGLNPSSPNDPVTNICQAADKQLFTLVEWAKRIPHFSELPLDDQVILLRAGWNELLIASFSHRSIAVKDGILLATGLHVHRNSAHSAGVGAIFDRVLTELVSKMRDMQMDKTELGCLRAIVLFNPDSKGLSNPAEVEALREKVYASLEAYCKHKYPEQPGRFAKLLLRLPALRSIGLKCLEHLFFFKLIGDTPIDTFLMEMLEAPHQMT
Assay: FXR activity screen, luciferase reporter in transfected CV-1 cells
Format: cell-based
Details: CV-1 cells, 24 hours
Procedure: CV-1 cells were grown in DMEM+10% charcoal stripped FCS. Cells were seeded into 384-well plates the day before transfection to give a confluency of 50-80% at transfection. A total of […] DNA containing 0.32 micrograms pCMX-hFXRfl, 0.32 micrograms pCMX-hRXRfl, 0.1 micrograms pCMXβGal, 0.08 micrograms pGLFXRE reporter and 0.02 micrograms pCMX empty vector was transfected per well using FuGene transfection reagent according to the manufacturer's instructions (Roche). Cells were allowed to express protein for 48 hours followed by addition of compound.
Human FXR full length and RXR full length was obtained from Ronald Evans' laboratory and PCR amplification of the hFXR cDNA and the hRXR cDNA was performed. The amplified cDNAs was cloned into the vector pCMX generating the plasmids pCMX-hFXRfl and pCMX-hRXRfl. Ensuing fusions were verified by sequencing. The pCMXMH2004 luciferase reporter contains multiple copies of the GAL4 DNA response element under a minimal eukaryotic promoter (Hollenberg and Evans, 1988). pCMXβGal was generated in the Evans laboratory, Salk Institute.
All compounds were dissolved in DMSO and diluted 1:1000 upon addition to the cells. Compounds were tested in quadruple in concentrations ranging from 0.001 to 100 μM. Cells were treated with compound for 24 hours followed by luciferase assay. Each compound was tested in at least two separate experiments.
Medium including test compound was aspirated and washed with PBS. 50 μL PBS including 1 mM Mg^2+ and Ca^2+ were then added to each well. The luciferase assay was performed using the LucLite kit according to the manufacturer's instructions (Packard Instruments). Light emission was quantified by counting on a Perkin Elmer Envision reader. To measure […] activity 25 μL supernatant from each transfection lysate was transferred to a new 384 microplate. Beta-galactosidase assays were performed in the microwell plates using a kit from Promega and read in a Perkin Elmer Envision reader. The beta-galactosidase data were used to normalize (transfection efficiency, cell growth etc.) the luciferase data.
The activity of a compound is calculated as fold induction compared to an untreated sample. For each compound the efficacy (maximal activity) is given as a relative activity compared to Fexaramine, a FXR agonist. The EC50 is the concentration giving 50% of maximal observed activity. EC50 values were calculated via non-linear regression using GraphPad PRISM (GraphPad Software, San Diego, Calif.).

[1] = first round, read-out: 1st RND EC50
[2] = second round, read-out: 2nd RND EC50

EC50 [1] | EC50 [2] | Structure (SMILES)
0.382 µM | 0.357 µM | [2H]C(c1ccc(-c2ccc(N(C)C)cc2)cc1)N(C(=O)c1ccccc1)c1cccc(/C=C/C(=O)OC)c1 (stereo not shown) [NSSK00048]
2.8 µM | 3.5 µM | [2H]C(c1ccc(-c2ccc3c(cnn3C)c2)cc1)N(C(=O)c1ccccc1)c1cccc(/C=C/C(=O)OC)c1 (stereo not shown) [NSSK00049]
1.7 µM | 2.1 µM | [2H]C(c1ccc(-c2ccc(N(C)C)cc2)cc1Cl)N(C(=O)c1ccccc1)c1cc(F)cc(/C=C/C(=O)OC)c1 (stereo not shown) [NSSK00050]
1.1 µM | 5 µM | [2H]C(c1ccc(-c2ccc3c(cnn3C)c2)cc1)N(C(=O)c1ccccc1)c1cc(F)cc(/C=C/C(=O)OC)c1 (stereo not shown) [NSSK00051]
0.697 µM | 0.697 µM | COC(=O)/C=C/c1cccc(N(Cc2ccc(-c3ccc(N(C)C)cc3)cc2Cl)C(=O)[C@@H]2C[C@@H]3CC[C@H]2C3)c1 [NSSK00052]
0.529 µM | 0.539 µM | COC(=O)/C=C/c1cccc(N(Cc2ccc(-c3ccc(N(C)C)cc3)cc2)C(=O)c2ccccc2)c1 [NSSK00053]
0.509 µM | 0.457 µM | COC(=O)/C=C/c1cccc(N(Cc2ccc(-c3ccc(N(C)C)cc3)cc2F)C(=O)c2ccccc2)c1 [NSSK00054]
0.931 µM | 1.4 µM | COC(=O)/C=C/c1cccc(N(Cc2ccc(-c3ccc(N(C)C)cc3)cc2Cl)C(=O)c2ccccc2)c1 [NSSK00055]
0.752 µM | 0.72 µM | COC(=O)/C=C/c1cccc(N(Cc2ccc(-c3ccc4c(cnn4C)c3)cc2)C(=O)c2ccccc2)c1 [NSSK00056]
0.606 µM | 0.795 µM | COC(=O)/C=C/c1cccc(N(Cc2ccc(-c3ccc4c(cnn4C)c3)cc2F)C(=O)c2ccccc2)c1 [NSSK00057]
1.2 µM | 1.5 µM | COC(=O)/C=C/c1cc(F)cc(N(Cc2ccc(-c3ccc4c(cnn4C)c3)cc2)C(=O)c2ccccc2)c1 [NSSK00058]
1.57 µM | 1.3 µM | COC(=O)/C=C/c1cncc(N(Cc2ccc(-c3ccc(N(C)C)cc3)cc2)C(=O)[C@@H]2C[C@@H]3CC[C@H]2C3)c1 [NSSK00059]
8.5 µM | 11.2 µM | COC(=O)/C=C/c1cncc(N(Cc2ccc(-c3ccc(N(C)C)cc3)cc2)C(=O)c2ccccc2)c1 [NSSK00060]
9.6 µM | 10.2 µM | COC(=O)/C=C/c1cncc(N(Cc2ccc(-c3ccc4c(cnn4C)c3)cc2F)C(=O)c2ccccc2)c1 [NSSK00061]
0.926 µM | 0.926 µM | [2H]C(c1ccc(-c2ccc(N(C)C)cc2)cc1)N(C(=O)C1CCCCC1)c1cncc(/C=C/C(=O)OC)c1 (stereo not shown) [NSSK00062]
3 µM | 1.9 µM | [2H]C(c1ccc(-c2ccc(N(C)C)cc2)cc1)N(C(=O)c1ccccc1)c1cncc(/C=C/C(=O)OC)c1 (stereo not shown) [NSSK00063]
4.6 µM | 3.3 µM | [2H]C(c1ccc(-c2ccc(N(C)C)cc2)cc1Cl)N(C(=O)[C@@H]1C[C@@H]2CC[C@H]1C2)c1cncc(/C=C/C(=O)OC)c1 (stereo partly shown) [NSSK00064]
3.3 µM | 6 µM | [2H]C(c1ccc(-c2ccc(N(C)C)cc2)cc1Cl)N(C(=O)c1ccccc1)c1cncc(/C=C/C(=O)OC)c1 (stereo not shown) [NSSK00065]
5.4 µM | 8.5 µM | [2H]C(c1ccc(-c2ccc3c(cnn3C)c2)cc1F)N(C(=O)[C@@H]1C[C@@H]2CC[C@H]1C2)c1cncc(/C=C/C(=O)OC)c1 (stereo partly shown) [NSSK00066]
0.0004 µM | 0.0002 µM | [2H]C(c1ccc(-c2ccc3c(cnn3C)c2)cc1F)N(C(=O)c1ccccc1)c1cncc(/C=C/C(=O)OC)c1 (stereo not shown) [NSSK00067]
5.7 µM | 7.4 µM | COC(=O)/C=C/c1cc(F)cc(N(Cc2ccc(-c3ccc(N(C)C)cc3)cc2)C(=O)c2ccccc2)c1 [NSSK00068]
1.7 µM | 1.7 µM | [2H]C(c1ccc(-c2ccc3c(cnn3C)c2)cc1F)N(C(=O)[C@@H]1C[C@@H]2CC[C@H]1C2)c1cccc(/C=C/C(=O)OC)c1 (stereo partly shown) [NSSK00070]
1.1 µM | 2.2 µM | [2H]C(c1ccc(-c2ccc(N(C)C)cc2)cc1Cl)N(C(=O)C1CCCCC1)c1cc(F)cc(/C=C/C(=O)OC)c1 (stereo not shown) [NSSK00072]

— patent US20190084939A1, “ANALOGS OF FEXARAMINE AND METHODS OF MAKING AND USING” (Salk Institute for Biological Studies, priority 2014, published 2019)
